# Results published in patent US9821002B2, “Method for alleviating radiation injury with isorhamnetin-3-O-β-D-glucoside” (Sinotai Oncology Associate., Ltd., priority 2015, dated 2017).
# Assays:
# NMuMG cells = assay: Clonogenic assay after X-ray irradiation; format: cell-based, mouse; conditions: 30 μM, 2 h pretreatment, X-ray 2, 4, 6 Gy, colonies after two weeks
# Text: (§1) Eight groups of BNL CL.2 cells (i.e., a normal control group referred to as Normal Control Group 1-A, an isorhamnetin-3-O-β-D-glucoside group referred to as Isorhamnetin-3-O-β-D-glucoside Group 1-A, three X-ray control groups referred to as X-Ray Control Groups 1-A to 3-A, and three experimental groups referred to as Experimental Groups 1-A to 3-A) and eight groups of NMuMG cells (i.e., a normal control group referred to as Normal Control Group 1-B, an isorhamnetin-3-O-β-D-glucoside group referred to as Isorhamnetin-3-O-β-D-glucoside Group 1-B, three X-ray control groups referred to as X-Ray Control Groups 1-B to 3-B, and three experimental groups referred to as Experimental Groups 1-B to 3-B) were prepared based on the procedure set forth in “Source and cultivation of cell lines” of “Experimental materials”. Specifically, BNL CL.2 cells in each group were cultivated using 5 mL of a corresponding medium shown in Table 1 and a 6-cm Petri dish in an amount of 2×10^5 cells per dish. Likewise, NMuMG cells in each group were cultivated using 5 mL of a corresponding medium shown in Table 1 and a 6-cm Petri dish in an amount of 2.5×10^5 cells per dish. The cultivation was conducted in an incubator (37° C., 5% CO2) for 24 hours. […]
# BNL CL.2 cells = assay: Clonogenic assay after X-ray irradiation; format: cell-based, mouse; conditions: 30 μM, 2 h pretreatment, X-ray 2, 4, 6 Gy, colonies after two weeks
# Text: as §1
structure (smiles),measurement,setting,value
COc1cc(-c2oc3cc(O)cc(O)c3c(=O)c2O[C@@H]2O[C@H](CO)[C@@H](O)[C@H](O)[C@H]2O)ccc1O [isorhamnetin-3-O-β-D-glucoside],survival fraction (clonogenic assay) versus X-ray control group,NMuMG cells,higher than that of the X-ray control group
same,survival fraction (clonogenic assay) versus X-ray control group,BNL CL.2 cells,higher than that of the X-ray control group
